Source: patent publication US20090170899A1, “Stimulators of 5-HT4 receptors and uses thereof” (priority 2004, published 2009)

Tests used:
DRN 5-HT neurons [1] = assay: Extracellular single-unit recordings of DRN 5-HT neuron mean firing rate in anaesthetized rats; type: in vivo, rat; settings: prucalopride 2.5 mg/kg, RS 67333 1.5 mg/kg; for enhancement of DRN 5-HT neuron mean firing rate vs control: s.c. osmotic minipumps; for increase of DRN 5-HT neuron firing rate with respect to controls: subacute i.p., 30 min before recordings
[2] = test system: hippocampal CA3 pyramidal neurons; assay: Response of hippocampal CA3 pyramidal neurons to WAY 100635 after 3-day treatments (5-HT1A tonus); type: in vivo, rat; settings: for 5-HT1A-mediated inhibitory tonus in the hippocampus: Example 7, 3 days, prucalopride 2.5, citalopram 10, RS 67333 1.5 mg/kg/day
Description: FIGS. 8A to 8C. […] Single-cell extracellular recordings were performed in the CA3 region of chloral-hydrate anaesthetized rats by using multiple-barrel glass microelectrodes, combined with microiontophoretic pumps (with the central barrel used for recordings). Pyramidal neurons were identified according to the classical criteria (see Example 5, the experimental procedures). The 5-HT4 agonists were administered through the use of osmotic minipumps, inserted subcutaneously in the region of the back. Recordings were performed with the minipumps still in place. *p<0.05, **p<0.01, ***p<0.001 vs control, Dunnett's test. […] FIG. 8C is a typical example showing the response of a single pyramidal neuron to cumulative doses of WAY 100635, in a rat co-administered with RS 67333 (same treatment as above for FIG. 8A) and the 5-HT depleter para-chlorophenylalanine (pCPA; 150 mg/kg, i.p. once daily 72, 48 and 24 h before the recordings).
Drugs and Chemicals. The following compounds were used: GR 125487 sulphamate, prucalopride monohydrochloride, citalopram hydrobromide (gifts from Glaxo, Janssen and Lundbeck laboratories, respectively), RS 67333 hydrochloride (Tocris Cookson Inc., Ellisville, Mo., USA), WAY 100635 hydrochloride (Research Biochemicals, Natick, Mass., USA), pCPA methyl ester hydrochloride, BrdU (Sigma-Aldrich Canada, Oakville, Ontario, Canada). All compounds were diluted in distilled water. All drug dosages refer to the free base. For chronic treatments, prucalopride (2.5 mg/kg/day), RS 67333 (1.5 mg/kg/day) or the vehicle were delivered through osmotic minipumps (Alza, Palo Alto, Calif., USA), inserted subcutaneously in the region of the back under short-duration (≦5 min) halothane anesthesia. The 5-HT depleter PCPA was administered once daily at the dose of 150 mg/kg, i.p., 72, 48 and 24 h before the recordings. BrdU treatments consisted of two administrations per day (50 mg/kg, i.p. each, 8 h interval), starting from the day of minipump insertion until day 2 post-surgery.
Microiontophoresis and extracellular recordings from hippocampal CA3 pyramidal neurons. Recording and microiontophoresis were performed with five-barreled glass micropipettes broken back to 8-12 μm under microscope control. The central barrel was filled with the same solution as in the DRN and was used for extracellular unitary recordings. Pyramidal neurons were identified by their large amplitude (0.5-1.2 mV) and long-duration (0.8-1.2 ms) simple spikes alternating with complex spike discharges (Kandel and Spencer, 1961). The side barrels contained the following solutions: quisqualate (1.5 mM in 200 mM NaCl, pH 8), WAY 100635 (15 mM in 200 mM NaCl, pH 4), and 2 M NaCl used for automatic current balancing. Rats were mounted in the stereotaxic apparatus and the micropipettes were lowered at 4.2 mm lateral and 4.2 anterior to lambda into the CA3 sub-region of the dorsal hippocampus.
The firing activity of dorsal hippocampus pyramidal neurons was then recorded in the CA3 subfield, before and after systemic administration of the selective 5-HTLA antagonist WAY 100635.

[3] = test system: CREB phosphorylation in the hippocampus; assay: CREB and pCREB immunoreactivities in hippocampal tissue after 3-day treatment; type: in vivo, rat; settings: 3 days, prucalopride 2.5, RS 67333 1.5 mg/kg/day; for pCREB/CREB ratio in hippocampal tissue: control 0.196±0.02
Description: Drugs and Chemicals. […] All compounds were diluted in distilled water. All drug dosages refer to the free base. […] BrdU treatments consisted of two administrations per day (50 mg/kg, i.p. each, 8 h interval), starting from the day of minipump insertion until day 2 post-surgery.

DRN 5-HT neurons [4] = settings: cited from earlier work; for enhancement of DRN 5-HT neuron mean firing rate: Lucas et al., 2005
[5] = cumulative i.v. WAY 100635 500 μg/kg, 3-day prucalopride 2.5 mg/kg/day or RS 67333 1.5 mg/kg/day
[6] = acute prucalopride 1000 μg/kg i.v., Lucas and Debonnel, 2002

| Structure (SMILES) | enhancement of DRN 5-HT neuron mean firing rate vs control (DRN 5-HT neurons [1]; 3-day continuous treatment) | enhancement of DRN 5-HT neuron mean firing rate vs control (DRN 5-HT neurons [1]; 21-day continuous treatment) | increase of DRN 5-HT neuron firing rate with respect to controls (DRN 5-HT neurons [1]) [%] | CA3 pyramidal neuron activity after WAY 100635 ([2]; 3-day RS 67333, as restated in the Discussion) | quisqualate ejection currents required to obtain basal firing ([2]; 3-day treated groups, controls 0 to −2 nA) [nA] | 5-HT1A-mediated inhibitory tonus in the hippocampus [2] | firing activity of CA3 pyramidal neurons after WAY 100635 ([2]; cumulative i.v. WAY 100635 200 μg/kg, 3-day RS 67333 1.5 mg/kg/day) | firing activity of CA3 pyramidal neurons after WAY 100635 ([2]; cumulative i.v. WAY 100635 300 μg/kg, 3-day RS 67333 1.5 mg/kg/day) | firing activity of CA3 pyramidal neurons after WAY 100635 [2, 5] | pCREB/CREB ratio in hippocampal tissue [3] | enhancement of DRN 5-HT neuron mean firing rate (DRN 5-HT neurons [4]) | increase of pCREB/CREB ratio vs control [3] | increase of DRN 5-HT activity in responder neurons (DRN 5-HT neurons [4]; [6]) | share of 5-HT neurons responding ("responders") (DRN 5-HT neurons [4]; [6]) [%] |
| --- | --- | --- | --- | --- | --- | --- | --- | --- | --- | --- | --- | --- | --- | --- |
| CCCCN1CCC(CCC(=O)c2cc(Cl)c(N)cc2OC)CC1 [RS 67333, 1-(4-amino-5-chloro-2-methoxyphenyl)-3-(1-n-burtl-4-piperidinyl)-1-propanone] | 79% | 59% | 66 | up to 440 % of pre-drug values | −4 to −6 | strong tonic inhibition | 276 (±52) % of basal values | 378 (±43) % of basal values | 445 (±60) % of baseline | 0.373±0.07 | 70% |  |  |  |
| COCCCN1CCC(NC(=O)c2cc(Cl)c(N)c3c2OCC3)CC1 [prucalopride] | +50% | +36% | 40 |  |  | modest inhibitory tonus |  |  | 191 (±31) % of baseline | 0.302±0.07 | 40-45% | +54% | around 100% | 47 |
